What was measured:
Assay in all cases: relative viability (nuclei count vs DMSO), 5 days (fraction); higher = more cells survive
NCI-H1793 = test system: NCI-H1793
Method in brief: (§1)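 Relative viability divides the nuclei count in treated wells by that in vehicle wells. Lung cancer cell lines were seeded in 1536-well plates, dosed by pin tool the next day, and fixed and stained after 5 days in one step with final 0.05% Triton X-100, 1% formaldehyde and 1 ug/ml Hoechst. Dosing was a single drug or a fixed anchor-drug dose plus five library-drug doses (not always all listed) in √10 steps, and values are medians of duplicate plates imaged at 4×.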

NCI-H838 = test system: NCI-H838
Method in brief: as §1

NCI-H23 = test system: NCI-H23
Method in brief: as §1

LU99A = test system: LU99A
Method in brief: as §1

PC-3 [JPC-3] = test system: PC-3 [JPC-3]
Method in brief: as §1

BEN = test system: BEN
Method in brief: as §1

NCI-H2347 = test system: NCI-H2347
Method in brief: as §1

NCI-H460 = test system: NCI-H460
Method in brief: as §1

RERF-LC-KJ = test system: RERF-LC-KJ
Method in brief: as §1

LOU-NH91 = test system: LOU-NH91
Method in brief: as §1

EKVX = test system: EKVX
Method in brief: as §1

NCI-H1355 = test system: NCI-H1355
Method in brief: as §1

LC-2-ad = test system: LC-2-ad
Method in brief: as §1

A-427 = test system: A-427
Method in brief: as §1

LCLC-97TM1 = test system: LCLC-97TM1
Method in brief: as §1

NCI-H650 = test system: NCI-H650
Method in brief: as §1

NCI-H1666 = test system: NCI-H1666
Method in brief: as §1

NCI-H1993 = test system: NCI-H1993
Method in brief: as §1

NCI-H1915 = test system: NCI-H1915
Method in brief: as §1

O=c1[nH]c2ccccc2n1C1CCN(CCCC(c2ccc(F)cc2)c2ccc(F)cc2)CC1 [Pimozide] + NC(=O)Nc1cc(-c2cccc(F)c2)sc1C(=O)N[C@H]1CCCNC1 [AZD7762] (partner 0.2 µM)
relative viability (NCI-H1793; first compound 0.08 µM): 0.553
relative viability (NCI-H1793; first compound 0.253 µM): 0.36
relative viability (NCI-H1793; first compound 0.8 µM): 0.352
relative viability (NCI-H1793; first compound 2.53 µM): 0.263
relative viability (NCI-H1793; first compound 8 µM): 0.28
relative viability (NCI-H838; first compound 0.08 µM): 0.937
relative viability (NCI-H838; first compound 0.253 µM): 0.946
relative viability (NCI-H838; first compound 0.8 µM): 0.908
relative viability (NCI-H838; first compound 2.53 µM): 0.938
relative viability (NCI-H838; first compound 8 µM): 0.966
relative viability (NCI-H23; first compound 0.08 µM): 0.248
relative viability (NCI-H23; first compound 0.253 µM): 0.315
relative viability (NCI-H23; first compound 0.8 µM): 0.195
relative viability (NCI-H23; first compound 2.53 µM): 0.167
relative viability (NCI-H23; first compound 8 µM): 0.213
relative viability (LU99A; first compound 0.08 µM): 0.399
relative viability (LU99A; first compound 0.8 µM): 0.333
relative viability (LU99A; first compound 2.53 µM): 0.31
relative viability (LU99A; first compound 8 µM): 0.398
relative viability (PC-3 [JPC-3]; first compound 0.253 µM): 0.719
relative viability (PC-3 [JPC-3]; first compound 0.8 µM): 0.72
relative viability (PC-3 [JPC-3]; first compound 2.53 µM): 0.832
relative viability (PC-3 [JPC-3]; first compound 8 µM): 0.751
relative viability (BEN; first compound 0.08 µM): 0.762
relative viability (BEN; first compound 0.253 µM): 0.753
relative viability (BEN; first compound 0.8 µM): 0.618
relative viability (BEN; first compound 2.53 µM): 0.713
relative viability (BEN; first compound 8 µM): 0.886
relative viability (NCI-H2347; first compound 0.08 µM): 0.782
relative viability (NCI-H2347; first compound 0.253 µM): 0.689
relative viability (NCI-H2347; first compound 0.8 µM): 0.723
relative viability (NCI-H2347; first compound 2.53 µM): 0.736
relative viability (NCI-H2347; first compound 8 µM): 0.744
relative viability (NCI-H460; first compound 0.08 µM): 0.615
relative viability (NCI-H460; first compound 0.253 µM): 0.539
relative viability (NCI-H460; first compound 0.8 µM): 0.625
relative viability (NCI-H460; first compound 2.53 µM): 0.693
relative viability (NCI-H460; first compound 8 µM): 0.549
relative viability (RERF-LC-KJ; first compound 0.08 µM): 0.91
relative viability (RERF-LC-KJ; first compound 0.253 µM): 0.866
relative viability (RERF-LC-KJ; first compound 0.8 µM): 0.806
relative viability (RERF-LC-KJ; first compound 2.53 µM): 0.757
relative viability (RERF-LC-KJ; first compound 8 µM): 0.81
relative viability (LOU-NH91; first compound 0.08 µM): 0.713
relative viability (LOU-NH91; first compound 0.253 µM): 0.746
relative viability (LOU-NH91; first compound 0.8 µM): 0.776
relative viability (LOU-NH91; first compound 2.53 µM): 0.778
relative viability (LOU-NH91; first compound 8 µM): 0.778
relative viability (EKVX; first compound 0.253 µM): 0.711
relative viability (EKVX; first compound 0.8 µM): 0.618
relative viability (EKVX; first compound 2.53 µM): 0.749
relative viability (EKVX; first compound 8 µM): 0.592
relative viability (NCI-H1355; first compound 0.08 µM): 0.757
relative viability (NCI-H1355; first compound 0.253 µM): 0.732
relative viability (NCI-H1355; first compound 0.8 µM): 0.701
relative viability (NCI-H1355; first compound 2.53 µM): 0.641
relative viability (NCI-H1355; first compound 8 µM): 0.761
relative viability (LC-2-ad; first compound 0.08 µM): 0.78
relative viability (LC-2-ad; first compound 0.253 µM): 0.794
relative viability (LC-2-ad; first compound 0.8 µM): 0.736
relative viability (LC-2-ad; first compound 2.53 µM): 0.812
relative viability (LC-2-ad; first compound 8 µM): 0.798
relative viability (A-427; first compound 0.08 µM): 0.711
relative viability (A-427; first compound 0.253 µM): 0.703
relative viability (A-427; first compound 0.8 µM): 0.764
relative viability (A-427; first compound 2.53 µM): 0.637
relative viability (A-427; first compound 8 µM): 0.676
relative viability (LCLC-97TM1; first compound 0.08 µM): 0.363
relative viability (LCLC-97TM1; first compound 0.253 µM): 0.23
relative viability (LCLC-97TM1; first compound 0.8 µM): 0.171
relative viability (LCLC-97TM1; first compound 2.53 µM): 0.246
relative viability (LCLC-97TM1; first compound 8 µM): 0.376
relative viability (NCI-H650; first compound 0.08 µM): 1.17
relative viability (NCI-H650; first compound 0.253 µM): 0.983
relative viability (NCI-H650; first compound 0.8 µM): 0.831
relative viability (NCI-H650; first compound 2.53 µM): 0.909
relative viability (NCI-H650; first compound 8 µM): 0.693
relative viability (NCI-H1666; first compound 0.08 µM): 0.803
relative viability (NCI-H1666; first compound 0.253 µM): 0.831
relative viability (NCI-H1666; first compound 0.8 µM): 0.76
relative viability (NCI-H1666; first compound 2.53 µM): 0.747
relative viability (NCI-H1666; first compound 8 µM): 0.881
relative viability (NCI-H1993; first compound 0.08 µM): 0.701
relative viability (NCI-H1993; first compound 0.253 µM): 0.752
relative viability (NCI-H1993; first compound 0.8 µM): 0.544
relative viability (NCI-H1993; first compound 2.53 µM): 0.675
relative viability (NCI-H1993; first compound 8 µM): 0.729
relative viability (NCI-H1915; first compound 0.08 µM): 0.661
relative viability (NCI-H1915; first compound 0.253 µM): 0.61
relative viability (NCI-H1915; first compound 2.53 µM): 0.674
relative viability (NCI-H1915; first compound 8 µM): 0.718
